Like-named read-outs stand apart in the source and are kept apart here.
How the values were obtained:
[1] = from CC(C)(C)OC(=O)NCC(C)(C)OCCC[C@@](OCc1ccccc1)(c1nnc(-c2nc(Cl)c(C(F)(F)F)cc2[N+](=O)[O-])o1)C(F)(F)F; snar bond; 14-membered ring; TFA; then DIEA; DCM; 0.96 mM; 25.0 °C; 2 steps
[2] = not given; remark: listed apart in the source

Work on `CC1(C)CNc2nc(c([N+](=O)[O-])cc2C(F)(F)F)C2=NN=C(O2)[C@@](OCc2ccccc2)(C(F)(F)F)CCCO1` yielded a ring closure, crude yield [1] of 99%.
`CN1CCN(C)c2nc(c(NC(=O)OC(C)(C)C)cc2C(F)(F)F)C2=NN=C(O2)C(OCc2ccccc2)(C(F)(F)F)CCC1=O` (centres unmarked) gave a ring closure, yield after HPLC (from CNCCN(C)c1nc(-c2nnc(C(CCC(=O)O)(OCc3ccccc3)C(F)(F)F)o2)c(NC(=O)OC(C)(C)C)cc1C(F)(F)F, amide bond, 14-membered ring, HATU/DIEA, DMF, 9.16 mM, 25.0 °C, 3.0 h) of 70%.
Compound “6-benzyloxy-12,12-dimethyl-17-nitro-6,15-bis(trifluoromethyl)-19-oxa-3,4,13,18-tetrazatricyclo[12.3.1.12,5]nonadeca-1(18),2,4,8,14,16-hexaen-7-ol (E/Z olefin mixture, cis diol)” has a ring closure, yield after HPLC (rcm bond, 14-membered ring, Zhan catalyst-1B, 70.0 °C) of 49%.
With `CC(=O)OC1C=CC[C@](OCc2ccccc2)(C(F)(F)F)C2=NN=C(O2)c2nc(c(C(F)(F)F)cc2[N+](=O)[O-])NC(C)(C)C1` (mixture of isomers) the ring closure, isolated yield ([2]; from C=CC[C@@](OCc1ccccc1)(c1nnc(-c2nc(NC(C)(C)CC(C=C)OC(C)=O)c(C(F)(F)F)cc2[N+](=O)[O-])o1)C(F)(F)F, rcm bond, 14-membered ring, Zhan catalyst-1B, toluene, 10.6 mM, 110.0 °C, 19.0 h) was 20%.
Work on `CC(C)(C)OC(=O)N(C(=O)OC(C)(C)C)c1cc(C(F)(F)F)c2nc1-c1nnc(o1)[C@@](OCc1ccccc1)(C(F)(F)F)CCC=CCC(c1ccccn1)N2` (mixture of isomers) yielded a ring closure, isolated yield ([2]; from C=CCC[C@@](OCc1ccccc1)(c1nnc(-c2nc(NC(CC=C)c3ccccn3)c(C(F)(F)F)cc2N(C(=O)OC(C)(C)C)C(=O)OC(C)(C)C)o1)C(F)(F)F, rcm bond, 14-membered ring, Zhan catalyst-1B, DCE, 1.5 mM, 85.0 °C, 12.0 h) of 24%.
For `CC(C)(C)OC(=O)Nc1cc(C(F)(F)F)c2nc1-c1nnc(o1)C(OCc1ccccc1)(C(F)(F)F)CC=CC[C@@H]1CCCN21` (mixture of isomers), the ring closure, isolated yield ([2]; from C=CC[C@@H]1CCCN1c1nc(-c2nnc(C(CC=C)(OCc3ccccc3)C(F)(F)F)o2)c(NC(=O)OC(C)(C)C)cc1C(F)(F)F, rcm bond, 13-membered ring, Zhan-1B (two charges), DCE, 6.47 mM, 80.0 °C, 36.0 h) was 6.5%.
With `CC(C)(C)OC(=O)Nc1cc(C(F)(F)F)c2nc1-c1nnc(o1)C(OCc1ccccc1)(C(F)(F)F)CCC=CC1CCCN21` (mixture of isomers) the ring closure, yield after HPLC (from C=CCCC(OCc1ccccc1)(c1nnc(-c2nc(N3CCCC3C=C)c(C(F)(F)F)cc2NC(=O)OC(C)(C)C)o1)C(F)(F)F, rcm bond, 13-membered ring, Zhan-1B (two charges), DCE, 6.25 mM, 85.0 °C, 23.0 h) was 3%.
With `CC(C)(C)OC(=O)Nc1cc(C(F)(F)F)c2nc1-c1nnc(o1)[C@@](O)(C(F)(F)F)c1cc(ccc1F)C=CC[C@@H]1CCCN21` (mixture of isomers) the ring closure, isolated yield ([2]; from C=CC[C@@H]1CCCN1c1nc(-c2nnc([C@](O)(c3cc(I)ccc3F)C(F)(F)F)o2)c(NC(=O)OC(C)(C)C)cc1C(F)(F)F, cc_pd bond, 15-membered ring, Pd(OAc)2/P(o-tol)3/Et3N, MeCN, 9.5 mM, 80.0 °C, 22.0 h) was 58%.
For `CC(C)(C)OC(=O)Nc1cc(C(F)(F)F)c2nc1-c1nnc(o1)[C@](O)(C(F)(F)F)c1cc(ccc1F)C=CC[C@@H]1CCCN21` (mixture of isomers), the ring closure, isolated yield ([2]; from C=CC[C@@H]1CCCN1c1nc(-c2nnc([C@@](O)(c3cc(I)ccc3F)C(F)(F)F)o2)c(NC(=O)OC(C)(C)C)cc1C(F)(F)F, cc_pd bond, 15-membered ring, Pd(OAc)2/P(o-tol)3/Et3N, MeCN, 9.5 mM, 80.0 °C, 22.0 h) was 56%.
`CC1(C)CC=CCC[C@](OCc2ccccc2)(C(F)(F)F)C2=NN=C(O2)c2nc(c(C(F)(F)F)cc2[N+](=O)[O-])N1` (mixture of isomers) showed a ring closure, isolated yield ([2]; from [2H]C([2H])([2H])C(CC=C)(Nc1nc(-c2nnc([C@@](CCC=C)(OCc3ccccc3)C(F)(F)F)o2)c([N+](=O)[O-])cc1C(F)(F)F)C([2H])([2H])[2H], rcm bond, 14-membered ring, Zhan catalyst-1B, DCE, 11.0 mM, 75.0 °C, 3.0 h) of 37.8%.
Compound `CC1(C)CCC=CC[C@](OCc2ccccc2)(C(F)(F)F)C2=NN=C(O2)c2nc(c(C(F)F)cc2[N+](=O)[O-])N1` (mixture of isomers) has a ring closure, yield after HPLC (from C=CCCC(C)(C)Nc1nc(-c2nnc([C@@](CC=C)(OCc3ccccc3)C(F)(F)F)o2)c([N+](=O)[O-])cc1C(F)F, rcm bond, 14-membered ring, Zhan catalyst-1B, DCE, 5.67 mM, 65.0 °C, 4.5 h) of 20%.
Work on `O=[N+]([O-])c1cc(C(F)(F)F)c2nc1-c1nnc(o1)-c1c(cccc1OCc1ccccc1)CC=CC[C@@H]1CCCN21` (mixture of isomers) yielded a ring closure, isolated yield ([2]; from C=CCc1cccc(OCc2ccccc2)c1-c1nnc(-c2nc(N3CCC[C@H]3CC=C)c(C(F)(F)F)cc2[N+](=O)[O-])o1, rcm bond, 14-membered ring, Zhan-1B, DCE, 7.24 mM, 70.0 °C, 5.0 h) of 26%.
Work on `O=[N+]([O-])c1cc(C(F)(F)F)c2nc1-c1nnc(o1)[C@@](OCc1ccccc1)(C(F)(F)F)CCC=CCC(c1ncccn1)N2` (mixture of isomers) yielded a ring closure, isolated yield ([2]; from C=CCC[C@@](OCc1ccccc1)(c1nnc(-c2nc(NC(CC=C)c3ncccn3)c(C(F)(F)F)cc2[N+](=O)[O-])o1)C(F)(F)F, rcm bond, 14-membered ring, Zhan catalyst-1B, DCE, 2.66 mM, 83.0 °C, 16.0 h) of 49%.
Work on “(6R)-6-benzyloxy-17-(tert-butoxycarbonylamino)-6,15-bis(trifluoromethyl)-19-oxa-3,4,13,18-tetrazatricyclo[12.3.1.12,5]nonadeca-1(17),2,4,9,14(18),15-hexaene-12-carboxylic acid (E/Z mixture)” yielded a ring closure, isolated yield ([2]; rcm bond, 14-membered ring, Zhan catalyst-1B, then LiOH, DCE, 0.99 mM, 75.0 °C, 2 steps) of 21%.
